From PubChem BioAssay (NCI)
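In this assay, cells in 96-well plates receive the compound at five concentrations for 48 hours. Endpoints are linearly interpolated between the surrounding concentrations. GI50 marks 50% less growth. At the TGI there is no net growth.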

Tests used:
Experiment in all cases: NCI tumour cell line growth inhibition, 48 h
IGROV1 ovarian = tested on: IGROV1 ovarian
A549 NSCLC = tested on: A549 NSCLC
M14 melanoma = tested on: M14 melanoma
SK-MEL-5 melanoma = tested on: SK-MEL-5 melanoma
HCT-116 colon = tested on: HCT-116 colon
SNB-75 CNS = tested on: SNB-75 CNS
UACC-62 melanoma = tested on: UACC-62 melanoma
NCI-H23 lung = tested on: NCI-H23 lung

Structure (SMILES) | GI50 (IGROV1 ovarian) [µM] | TGI (IGROV1 ovarian) [µM] | GI50 (A549 NSCLC) [µM] | TGI (A549 NSCLC) [µM] | GI50 (M14 melanoma) [µM] | TGI (M14 melanoma) [µM] | GI50 (SK-MEL-5 melanoma) [µM] | TGI (SK-MEL-5 melanoma) [µM] | GI50 (HCT-116 colon) [µM] | TGI (HCT-116 colon) [µM] | GI50 (SNB-75 CNS) [µM] | TGI (SNB-75 CNS) [µM] | GI50 (UACC-62 melanoma) [µM] | TGI (UACC-62 melanoma) [µM] | GI50 (NCI-H23 lung) [µM] | TGI (NCI-H23 lung) [µM]
Cc1cc2c(cc1Cl)SC1=NN(C)S(=O)N1S2(=O)=O (configuration not stated) | > 100 | > 100 | > 100 | > 100 | > 100 | > 100 | > 100 | > 100 | > 100 | > 100 | 58.7 | > 100 | 88.4 | > 100 | > 100 | > 100
CC(SC(=S)N1CCOCC1)c1cc2oc(=O)n(C)c2cc1Cl (configuration not stated) |  | > 10 |  | > 100 |  | > 100 |  | > 100 |  | > 100 |  | > 100 |  | > 100 |  | > 100
COc1cc[nH]c1/C=C1\C(=O)Nc2ccc(F)c(C#CC3(O)CCNCC3)c21 | 0.383 | 2.27 | 0.0985 | 1.18 | 0.0413 | 0.684 | 0.24 | 0.968 | 0.0125 | 2.76 | 0.014 | 0.469 | 0.16 | 0.633 | 0.161 | 1.14
COc1ccc(N2C(=O)/C(=C/c3ccc(N(CCC#N)CCC#N)cc3C)N=C2c2cc([N+](=O)[O-])ccc2Cl)cc1 |  | > 63.1 |  | > 72 |  | 24.4 |  | 51.8 |  | 29.3 |  | 7.06 |  | > 46.4 |  | > 61.6
CCC[CH2][Sn]1([CH2]CCC)[O]C(=O)CN=Cc2c(ccc3ccccc23)[O]1 | 2.48 | > 100 | 1.74 | 3.4 | 0.367 | 1.34 | 1.81 | > 100 | 1.04 | 2.32 | 0.295 | 1.03 | 0.229 | 0.558 | 0.235 | 1.11
COc1ccc(NC(=O)CC(=O)N/N=C/c2ccc(N(CCC#N)S(C)(=O)=O)cc2)cc1 |  | > 100 |  | > 100 |  | > 100 |  | > 100 |  | > 100 |  | > 100 |  | > 100 |  | > 100
C/C(O)=C(\N=O)C(=O)Nc1ccc(Cl)cc1Cl |  | > 100 |  | > 100 |  | > 100 |  | > 100 |  | > 100 |  | > 100 |  | > 100 |  | > 100
CCCC(=O)OCC1OC(n2cnc3c(=S)nc[nH]c32)C(OC(=O)CCC)C1OC(=O)CCC (configuration not stated) | 10.3 | > 100 | 38.1 | > 100 | 2.23 | > 100 | 5.24 | 62.9 | 4 | > 100 | 4.04 | > 100 | 1.91 | > 100 | 5.09 | > 100
CC/C=C\C[C@H](F)C/C=C1/C(=O)C=C[C@@H]1C/C=C\CCCC(=O)O | 9.97 | 32.1 | 7.3 | 18.8 | 6.53 | 20 | 4.86 | 9.18 | 1.34 | 4.78 | 12.5 | > 32.5 | 4.29 | 11.1 | 7.36 | 20.4
